Laboratory results from article PMC3378324 (Febs Letters, 2012).
Where no end group is shown, it is not given here.

What was measured:
[1] = tested on: Hck-SH3; settings: ITC, ref [12]; cited from earlier work
[2] = tested on: Hck-SH3; assay: Yeast two-hybrid assay; format: cell-based, human; settings: negative control for RT-loop selection
[3] = tested on: Fyn(R96I)-SH3; assay: Yeast two-hybrid assay; format: cell-based, human; settings: negative control for RT-loop selection
[4] = biological target: Fyn(WT)-SH3 (Homo sapiens, UniProt P06241); assay: Yeast two-hybrid assay; format: cell-based; settings: negative control for RT-loop selection
Fyn(WT)-SH3, sequence (P06241 82-143 limits assumed): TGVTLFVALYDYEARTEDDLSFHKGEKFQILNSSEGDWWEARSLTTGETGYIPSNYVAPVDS

Substance | binding characteristics toward Hck-SH3 compared with ALIXV+PRR [1] | yeast two-hybrid interaction strength [2] | yeast two-hybrid interaction strength [3] | yeast two-hybrid interaction strength [4]
PTPPTPAPRTMPPTKPQPPARPPP [ALIXPI] | did not fully reproduce the binding characteristics of ALIXV+PRR toward Hck-SH3 |  |  | 
SAM68: Src-associated in mitosis 68 kDa (SAM68) protein |  | interacted with comparable strength with every SH3 domain | interacted with comparable strength with every SH3 domain | interacted with comparable strength with every SH3 domain
